These results are taken from US20090030037A1, “Sustained Release Formulation and Dosing Schedules of Leukotriene Synthesis Inhibitor for Human Therapy” (deCODE Genetics ehf., priority 2005, published 2009).

For data set [1], the system named is LTB4. Nature of the data set: Study DG-031-201: ionomycin-induced LTB4 production in whole blood ex vivo. More on the design: species or system human. The settings on record: for LTB4 production, percent change: Study 201. As for the experimental part: Genet. 2004). Apart from FLAP, allele A of the SNP SG12S25 in the LTA4 hydrolase gene, another gene in the LT pathway, is also associated with MI, as described in PCT application no. PCT/US03/32556 and PCT/US04/30582 incorporated by reference.
Patients who met the study eligibility criteria were enrolled and randomized into 3 different dose-level groups: (1) 64 patients on 250 mg/day therapy with DG-031 (250 mg q.d.), vs placebo; (2) 64 patients on 500 mg/day therapy with DG-031 (250 mg b.i.d.) vs placebo; and (3) 63 patients on 750 mg/day therapy with DG-031 (250 mg t.i.d.) vs placebo. […] All patients received 3 tablets per day. Treatment periods, 4 weeks in duration each, were separated by a 2-week washout period. The placebo tablets were identical in shape, color, form and taste to the active tablets except that they contained no active drug ingredients. Treatment with DG-031 or placebo was in addition to the subject's standard care, including all medications and treatment plan as prescribed by the subject's cardiologist prior to enrolment. A total of 191 subjects were enrolled, with 172 completing all 8 visits or 8 patients short of the target of 180 patients.
The primary objective was to determine whether the FLAP inhibitor has a statistically significant effect, compared to placebo, on one or more biomarkers of MI risk, including: (1) ionomycin-induced LTB4 and MPO release by neutrophils ex vivo; (2) MPO, CRP, N-tyrosine, Lp-PLA2 or amyloid A in serum, or (3) LTE4 in urine. The secondary objective was to determine whether the effect of DG-031 was dose-dependent. The tertiary objective was to assess other biomarkers (See Results). Evaluation of safety and tolerability of the drug was also a primary endpoint.
All data were analyzed according to a pre-established statistical analysis plan (SAP) and by intention-to-treat (ITT). Each arm of the study, as well as pooled sets (combining dose levels), was considered for the primary analysis. Each such set is an AB/BA cross-over design and in the primary analysis of efficacy, the levels of biomarkers of MI risk at the end of the treatment periods (visits 4 and 7) were used as primary response variables. The difference between DG-031 and placebo treatment was the primary outcome, assessed separately for each of the biomarkers. Treatment effect was tested using a two-sample t-test on the period differences for suitably transformed response variables, under an assumption of normality of the transformed data. We report treatment effect as one half of the observed mean differences in the two-sample t-test, with a 95% CI. No pre-tests for carry-over effect were performed as a part of the primary analysis. Tests for carry-over were done and are reported separately from results of primary analysis. All hypotheses were tested at a two-sided nominal significance level of 0.05 and p-values based on t-tests are reported. In addition, for the primary efficacy endpoints where the effects of the two highest doses on 10 primary variables were studied, a randomization test was performed which corrects for multiple testing and ensures that the key results are not affected by distributional concerns. In particular, 1 million permutations of the patients into the different study tracks were performed, generating a reference distribution for the maximum of the 10 t-statistics of the biomarkers under the null hypothesis of no drug effect. […]

For data set [2], the system named is CRP. Nature of the data set: Study DG-031-203: serum CRP. It counts as in vivo, human. As for the experimental part: The study also collected information on the dose-related effect of DG-031 on capacity for LTB4 production (ex vivo), plasma MPO, and serum-CRP. […] The pattern observed supported a concentration dependent pharmacologic effect of DG-031 on capacity for LTB4 production measured ex vivo. The effects on LTB4 production amounted to a 30% (p=0.016) and 25% (p=0.094) reduction with the 375 mg BID and 250 mg TID doses, respectively.

For data set [3], the system named is hsCRP. The data set can be described thus: Study DG-031-204: hsCRP. It counts as in vivo, human. The settings on record: after 4 weeks. The protocol:
An additional single site, open label study was carried out to obtain biomarker and safety data on additional DG-031 doses (i.e., 1000 mg and 1500 mg). This study examined the safety, tolerability and dose-related effects of DG-031 on inflammatory biomarkers including: LTB4, hsCRP, and MPO. A total of 119 patients with a prior history of CAD and MI were randomized to receive either 1000 mg DG-031 (500 mg BID) or 1500 mg DG-031 (500 mg TID) daily for 4-6 weeks. Treatment with DG-031 in addition to the subject's standard care, medication, and treatment, was prescribed by the patient's cardiologist. A majority of the subjects received statin therapy before, during and after the study. Follow-up assessments were performed 2 weeks after the end of study drug administration.
The biomarkers were analyzed as described in Example 1. Statistical analysis of the data was carried out using a one-sample t-test on change from baseline with a two-sided nominal significance level of 0.050. Biomarker concentrations were log-transformed and a simple last observation carried forward (LOCF) scheme was used to impute missing observations.
Additionally, hsCRP was measured weekly and tended to decrease in the 1000 mg treatment group. […]

Data set [4] in a line: Clinical studies in CAD patients: safety and tolerability. It counts as in vivo, human. As for the experimental part:
Previous clinical studies administered the dosages of DG-031 either in a single dose (QD) or twice a day (BID)
A total daily dose of 750 mg, dosed at 250 mg TID, provides a preferable PK/PD relationship (inhibition of LTB4) and efficacy in terms of lowering other biomarkers of MI risk (i.e. MPO and CRP). In addition, a total daily dose of 1000 mg, dosed at 500 mg BID, also provides a preferable PK and PD time course (inhibition of LTB4) and efficacy in terms of lowering other biomarkers of MI risk (i.e. MPO). Patient compliance is an important consideration when designing a dosing schedule and patients are more likely to comply with a twice a day dosing (BID) than three times a day doing (TID).

SMILES strings stand for the structures. Several values for one entry are separate records, joined by “and”; a condition that tells them apart may be missing. Identical values can stand only once.

As for `O=C(O)[C@@H](c1ccc(OCc2ccc3ccccc3n2)cc1)C1CCCC1` [DG-031, (R)-(+)-alpha-cyclopentyl-4-(2-quinolinylmethoxy)-Benzeneacetic acid], the “LTB4 production, percent change” value in data set [1] (250 mg BID) is −18%; in data set [1] (250 mg QD), −13%; in data set [1] (250 mg TID), −34% (St. 201) and −34% (−201). Besides, the “Reduction of capacity for LTB4 production” value in data set [1] (250 mg TID, at steady state Cmin) worked out at 30%. The “Carry-over effect, LTB4 in whole blood, corr. for wbc” value in data set [1] (difference visit 2 to 5, 500 and 750 mg/day vs placebo) is −0.10. Besides, the “Reduction in CRP levels, high CRP group” value in data set [2] (250 mg TID, CRP above median 1.4 mg/L at entry) is 48%; in data set [2] (375 mg BID, CRP above median at entry, p=0.16), 31%. In addition, the “CRP, change” value is given as 37% (St. 203) in data set [2] (250 mg TID, Study 203, 1 wk); “No effect” in data set [2] (375 mg BID, Study 203); −28% in data set [2] (375 mg QD, Study 203, 1 wk). Further, the “Reduction of serum CRP” value in data set [2] (250 mg TID, after one week, follow-up study (203), all subjects) was 38%. The “Change in serum CRP” value in data set [2] (375 mg BID, one week, all subjects) was −1%. The “hsCRP reduction, mean change from baseline” value came out at 20% in data set [3] (1000 mg treatment group) and 3% in data set [3] (1500 mg treatment group). The Safety and tolerability result in data set [4] (250 mg QD, 375 mg QD, 250 mg BID, 375 mg BID, 250 mg TID) was “safe and well tolerated”; in data set [4] (total daily doses 250, 500, 750 mg, 128 days), “safe and well tolerated”.
